Values quoted from earlier work as cited in patent US12606521B2, “Methods of treating cancer” (Institute For Cancer Research, priority 2020, dated 2026).

Tested on: cancer cells
Details: combination with decitabine

SMILES: Cc1cc(C(C#N)c2ccc(Cl)cc2)c(Cl)cc1NC(=O)c1cc(I)cc(I)c1O (stereo not shown) [closantel]
- Interaction with decitabine in killing cancer cells: synergizes with decitabine
